# Measurements taken from patent US11007182B2, “Use of atpenin to activate innate immunity” (Health Research, Inc., priority 2015, dated 2021).
# Assays:
# Assay type in all cases: cell-based, human
# HIF1α [1] = experiment: HIF1α stabilization (immunoblotting) in CD14 negative lymphocytes and CD14 positive monocytes; settings: FIG. 5
# Description: FIG. 5. HIF1α is stabilized in CD14 negative lymphocytes, but not in CD14 positive monocytes in hypoxia (H, 1% O2, day 1). […] CD14± cells are unsorted PBMCs.
# (§1) We used primary human monocytes and 293T HEK cells to investigate their response to hypoxia and to cell-permeable complex II inhibitors (atpenin A5, TTFA) using cell culture methods, high throughout RNA sequencing, qPCR, immunoblotting and oxygen consumption assays.
# [2] = test system: APOBEC3A-mediated RNA editing; experiment: SDHB c.136C>U site-specific RNA editing assay (RT-PCR) in monocyte-enriched PBMCs; settings: for effect on hypoxia-induced RNA editing: hypoxia 1% O2; for effect on hypoxia-induced RNA editing / induction of APOBEC3A-mediated RNA editing in normoxia: atpenin A5 1-3 μM, DMOG 1 mM, myxothiazol 1 μM; for induction of APOBEC3A-mediated RNA editing in normoxia: TTFA 1 mM
# Procedure: Peripheral blood mononuclear cells of anonymous platelet donors were isolated from peripheral blood in Trima Accel™ leukoreduction system chambers (Terumo BCT®, Lakewood, Colo.) after thrombocytapheresis, in accordance with a protocol approved by the institutional review board of Roswell Park Cancer Institute. A density gradient centrifugation method using polysucrose-containing Lymphocyte Separation Medium (Mediatech®, Manassas, Va.) was used for PBMC isolation. MEPs were prepared from PBMCs using the well-established cold aggregation method with slight modification (Mentzer et al 1986). Briefly, PBMCs were subjected to gentle rocking at 4° C. for an hour and aggregated cells that sedimented through fetal bovine serum (FBS; VWR®, Radnor, Pa.) were collected as MEPs (monocyte-enriched PBMCs) after 0.5-3 hours for high monocyte enrichment (˜70% monocytes as assessed by immunofluorocytometry for CD14), or after 8-16 hours for mild enrichment (˜20%-40% monocytes). MEPs were cultured at a density of at least 20 million per ml in 1 or 2 ml per well of 6- or 12-well standard tissue culture plates under 5% CO2 in RPMI-1640 medium (Mediatech®) with 10% FBS, and 100 U per ml penicillin and 100 μg per ml streptomycin (Mediatech®). CD14 positive monocytes were separated in certain experiments from MEPs that were initially cultured for 1 or 2 days using magnetic beads and donut-shaped magnet (EasySep cell isolation kit purchased from STEMCELL Technologies).
# For hypoxia, cells were cultured under 1% O2, 5% CO2 and 94% N2 in an XVIVO SYSTEM® (a cell culture system) (Biospherix®, Lacona, N.Y.). ‘Universal’ type I IFN, a hybrid of N-terminal IFNα-2 and C-terminal IFNα-1, produced in E. coli were obtained from PBL Assay Science® (Piscataway, N.J.), and respectively used at 300 U per ml. Unless noted otherwise, hypoxia and/or interferon treatments were for 24 hours. Differential viability of MEPs after 1-day culture in normoxia versus hypoxia was not observed as evaluated by Trypan blue stain.
# SDHB c.136C>U site-specific RNA editing, catalyzed by APOBEC3A cytidine deaminase, was quantified by RT-PCR as described (Baysal et al 2013). Total RNA, genomic DNA and plasmid DNA were isolated using material and methods provided with TRIzol™, DNA Wizard Genomic DNA Purification Kit (Promega®), and Plasmid Kit (Qiagen®, Germantown, Md.), respectively. RNA/DNA was quantified by spectrophotometry on a Nanodrop™ 2000 instrument (Thermo Fisher®). Proteins were quantified using Bio-Rad® Dc™ assay with bovine serum albumin standards. Statistical tests were two-tailed and were performed using R 3.0, Excel™ 2010 (Microsoft®, Redmond, Wash.), or Prism™ 6.0 (GraphPad®, San Diego, Calif.) software.
# Atpenin A5 is purchased from Cayman Chemical (CAS 119509-24-9), dissolved in DMSO and used in final concentrations of 1-3 μM in culture. DMOG (dimethyloxalylglycine; CAS 89464-63-1) and myxothiazol (CAS 76706-55-3) are purchased from Sigma-Aldrich, dissolved in DMSO and used in final concentrations of 1 mM and 1 μM, respectively.
# HIF1α [3] = experiment: HIF1α stabilization (immunoblotting) in 293T cells; settings: for HIF1α stabilization in mild hypoxia: 6% O2
# Procedure: (§2) FIG. 6. Inhibition of complex II reduces oxygen consumption and antagonizes HIF-1. […] DMSO indicates the untreated vehicle control. […] The oxygen levels are measured by a fluorescent dye, which is quenched by oxygen (i.e., more fluorescence, less oxygen). Results are averages from 3 donors' monocyte-enriched PBMCs with SEMs shown in dashed lines.
# as §1
# monocyte-enriched PBMCs = experiment: Oxygen consumption assay (oxygen-quenched fluorescent dye) in monocyte-enriched PBMCs; settings: averages from 3 donors' monocyte-enriched PBMCs
# Procedure: as §2, §1
# [4] = test system: hypoxia-related gene expression in monocytes; experiment: RNA seq and RT-qPCR of hypoxic gene expression in monocytes
# Description: FIG. 4. AtA5 treatment in normoxia induces hypoxic gene expression in monocytes.
# as §1
# On the contrary, AtA5 reduces cellular oxygen consumption in peripheral blood mononuclear cells and inhibits HIF-la stabilization in mildly hypoxic conditions in 293T cells (FIG. 6).
compound,measurement,setting,value
"COC(=O)CNC(=O)C(=O)OC [DMOG, dimethyloxalylglycine]",HIF1α stabilization in normoxia in lymphocytes and monocytes,HIF1α [1],stabilizes HIF1α in both lymphocytes and monocytes
same,effect on hypoxia-induced RNA editing,[2]; MEPs,inhibited hypoxia-induced RNA editing
same,induction of APOBEC3A-mediated RNA editing in normoxia,"[2]; normoxia, MEPs",did not induce RNA editing in normoxia
"O=C(CC(=O)C(F)(F)F)c1cccs1 [TTFA, thenoyltrifluoroacetone]",induction of APOBEC3A-mediated RNA editing in normoxia,"[2]; normoxia, MEPs",induces RNA editing in normoxia
COc1[nH]c(=O)c(C(=O)[C@@H](C)C[C@H](C)[C@@H](Cl)CCl)c(O)c1OC [atpenin A5],HIF1α stabilization in normoxia in lymphocytes and monocytes,HIF1α [1],does not stabilize HIF1α in normoxia in lymphocytes or monocytes
same,HIF1α stabilization in mild hypoxia,"HIF1α [3]; 293T cells, day 1",inhibits HIF1α stabilization in mild hypoxia
same,HIF-1α stabilization in normoxia in 293T cells,"HIF1α [3]; normoxic treatment, 293T embryonic kidney cells, FIG. 6",does not stabilize HIF-la
same,oxygen consumption relative to control cells,monocyte-enriched PBMCs,"reduces oxygen consumption relative to control cells (blue), but does not abolish it"
same,effect on A3A-mediated RNA editing or transcript induction in hypoxic monocytes,[4]; hypoxic monocytes,does not inhibit A3A-mediated RNA editing or transcript induction in hypoxic monocytes
same,expression of hypoxia-related and pro-angiogenic genes (RT-qPCR),[4]; normoxic treatment of monocytes,"causes upregulation of many hypoxia-related and pro-angiogenic genes including VEGFA, CXCL8 (IL8) and CXCR4"
same,transcriptome-scale changes (RNA seq and RNA editing analyses),"[4]; normoxic treatment of monocytes, FIG. 4",closely mimics the hypoxia effects in inducing transcriptome-scale changes
same,cell population in which induced RNA editing occurs,[2]; CD14 positive and CD14 negative cells separated from MEPs after culture,induced RNA editing occurs in CD14+ monocytes
same,effect on hypoxia-induced RNA editing,[2]; MEPs,without inhibiting the hypoxia-induced RNA editing
same,RNA editing levels induced in normoxia relative to hypoxic stimulation,"[2]; normoxia versus hypoxia, FIG. 1",comparable to levels observed upon hypoxic stimulation
same,induction of APOBEC3A-mediated RNA editing in normoxia,"[2]; normoxia, MEPs",induced APOBEC3A-mediated RNA editing in normoxia
same,effect on RNA editing in combination with interferon,"[2]; normoxia, MEPs, type I IFN 300 U per ml",synergistic effect with interferon-induced RNA editing levels
same,monocyte-enriched PBMCs from donors (biological replicates) with normoxic induction of RNA editing,"[2]; normoxia, p=0.00013, two-sided Wilcoxon pairwise test",19 of 19
CO/C(=C/C(N)=O)[C@H](C)[C@H](/C=C/c1csc(-c2csc([C@@H](C)/C=C/C=C/C(C)C)n2)n1)OC [myxothiazol],HIF1α stabilization in severe hypoxia,"HIF1α [3]; 1% O2, 293T cells, day 1",inhibits it both in mild and severe hypoxia
same,HIF1α stabilization in mild hypoxia,"HIF1α [3]; 293T cells, day 1",inhibits it both in mild and severe hypoxia
same,oxygen consumption relative to control cells,monocyte-enriched PBMCs,completely inhibit oxygen consumption
same,effect on hypoxia-induced RNA editing,[2]; MEPs,inhibited hypoxia-induced RNA editing
same,induction of APOBEC3A-mediated RNA editing in normoxia,"[2]; normoxia, MEPs",did not induce RNA editing in normoxia
antimycin A,oxygen consumption relative to control cells,monocyte-enriched PBMCs,completely inhibit oxygen consumption
